Experimental data: US4725683A, “Fluorophenoxyphenoxypropionates and derivatives thereof” (The Dow Chemical Company, priority 1985, dated 1988)

How the values were obtained:
Assay in all cases: Preemergent activity
Format in all cases: in vivo
Settings in all cases: 0.28 kgs/hectare, seeds
soybean = tested on: soybean
Method: (§1) In a representative operation, 2-[4-(2-fluoro-4-trifluoromethylphenoxy)phenoxy]propionic acid methyl ester, to be utilized in a series of tests, is dissolved in acetone to one half of the final volume (twice the final concentration) to be used and the acetone solution in each case is admixed with an equal volume of water containing 0.1 percent by weight of Tween-20 surface active material (Tween-20 is a trademark of Atlas Chemical Company). The composition, generally in the nature of an emulsion, was employed to treat separate respective seed beds of sandy loam soil of good nutrient content wherein each seed bed contained separate groups of good viable seeds, each group being of one of a known plant species. The various beds were positioned side by side and exposed to substantially identical conditions of temperature and light. Each bed was maintained so as to prevent any interaction with the test compound in different seed beds. Each seed bed was treated with the composition as a spray employing conventional spraying equipment to deposit a predetermined amount of the compound uniformly throughout the surface of the bed. Another seed bed was treated only with the acetone-Tween-20 water mixture with no chemical added to serve as a control. After treatment, the seed beds were maintained for two weeks under greenhouse conditions conducive for good plant growth and watered as necessary. Control refers to the reduction in growth of the test species in the presence of the test chemical relative to the observed growth of the same species in the absence of the test chemical.
(§2) Substantially the same procedures described in Example C were repeated using as the active ingredients

pigweed = tested on: pigweed
Method: as §1, §2

velvet leaf = tested on: velvet leaf
Method: as §1, §2

sugarbeets = tested on: sugarbeets
Method: as §1, §2

Measured: phytotoxic effect

COC(=O)C(C)Oc1ccc(Oc2ccc(C(F)(F)F)cc2F)cc1 (stereo not shown) [2-[4-(2-fluoro-4-trifluoromethylphenoxy)phenoxy]propionic acid methyl ester]
inactive: all assays above
